# Assay results: patent publication US12565489B2, “Heterocyclyl pyrimidines and triazines as novel fungicides” (Bayer Aktiengesellschaft, priority 2020, dated 2026)
# Legend:
# [1] = system: Colletotrichum lindemuthianum; assay: In vivo preventive test on Colletotrichum lindemuthianum (leaf spot on bean); conditions: 168 h, 500 ppm of active ingredient, preventive spray on young bean plants, evaluated 7 days after inoculation, read-out: efficacy
# Procedure: (§1) The active ingredients were made soluble and homogenized in a mixture of Dimethyl sulfoxide/Acetone//Tween®80 and then diluted in water to the desired concentration. The young plants of bean were treated by spraying the active ingredient prepared as described above. Control plants were treated only with an aqueous solution of Acetone/Dimethyl sulfoxide/Tween® 80. After 24 hours, the plants were contaminated by spraying the leaves with an aqueous suspension of Colletotrichum lindemuthianum spores.
# Septoria tritici = Septoria tritici in vitro cell test; type: cell-based; conditions: Zymoseptoria tritici, 168 h; 20 ppm of active ingredient; 7 days incubation; liquid culture, spectrometric measurement of mycelium growth; read-out: efficacy (inhibition of fungal growth)
# Procedure: • Solvent: DMSO • Culture medium: 1 g KH2PO4 (VWR), 1 g K2HPO4 (VWR), 0.5 g Urea (VWR), 3 g KNO3 (Prolabo), 10 g saccharose (VWR), 0.5 g MgSO4, 7H2O (Sigma), 0.07 g CaCl2, 2H2O (Prolabo), 0.2 mg MnSO4, H2O (Sigma), 0.6 mg CuSO4, 5H2O (Sigma), 7.9 mg ZnSO4, 7H2O (Sigma), 0.1 mg H3BO3 (Merck), 0.14 mg NaMoO4, 2H2O (Sigma), 2 mg thiamine (Sigma), 0.1 mg biotine (VWR), 4 mg FeSO4, 7H2O (Sigma), QSP 1 liter • Inoculum: spore suspension Fungicides were solubilized in DMSO and the solution used to prepare the required range of concentrations. […] A spore suspension of S. tritici was prepared and diluted to the desired spore density. Fungicides were evaluated for their ability to inhibit spore germination and mycelium growth in liquid culture assay. The compounds were added in the desired concentration to the culture medium with spores. […] Inhibition of fungal growth was determined by comparing the absorbance values in wells containing the fungicides with the absorbance in control wells without fungicides.
# Pyricularia oryzae = assay: microbe, parasite or virus in culture; type: cell-based; conditions: 120 h, read-out: efficacy (inhibition of fungal growth)
# Alternaria alternata = Alternaria alternata in vitro cell test; type: cell-based; conditions: 120 h, 20 ppm of active ingredient, 5 days incubation, liquid culture, spectrometric measurement of mycelium growth, read-out: efficacy (inhibition of fungal growth)
# Procedure: (§2) • Solvent: DMSO • Culture medium: 14.6 g anhydrous D-glucose (VWR), 7.1 g Mycological Peptone (Oxoid), 1.4 g granulated Yeast Extract (Merck), QSP 1 liter • Inoculum: spore suspension Fungicides were solubilized in DMSO and the solution used to prepare the required range of concentrations. […] A spore suspension of A. alternata was prepared and diluted to the desired spore density. Fungicides were evaluated for their ability to inhibit spore germination and mycelium growth in liquid culture assay. The compounds were added in the desired concentration to the culture medium with spores. After 5 days incubation, fungi-toxicity of compounds was determined by spectrometric measurement of mycelium growth. Inhibition of fungal growth was determined by comparing the absorbance values in wells containing the fungicides with the absorbance in control wells without fungicides.
# Sphaerotheca fuliginea = assay: In vivo preventive test on Sphaerotheca fuliginea (powdery mildew on cucurbits); conditions: Podosphaera fuliginea, 192 h; 500 ppm of active ingredient; preventive spray on young gherkin plants; evaluated 8 days after inoculation; read-out: efficacy
# Procedure: as §1, with “gherkin” for “bean”, “Sphaerotheca fuliginea” for “Colletotrichum lindemuthianum”
# Pyrenophora teres = Pyrenophora teres in vitro cell test; type: cell-based; conditions: 144 h, 20 ppm of active ingredient, 6 days incubation, liquid culture, spectrometric measurement of mycelium growth, read-out: efficacy (inhibition of fungal growth)
# Procedure: as §2, with “P. teres” for “A. alternata”, “6” for “5”
# [2] = Measurement of Log P values by HPLC on reversed phase columns (EEC directive 79/831 Annex V.A8); type: physicochemical; conditions: LogP
# Method in brief: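 Calibration used straight-chain alkan-2-ones (3 to 16 carbons) of known Log P, interpolating linearly between retention times. Values come from reversed-phase LC-UV (EEC 79/831 Annex V.A8), 10% to 95% acetonitrile gradient against 0.1% formic acid, 0.001 molar ammonium acetate, or 0.1% phosphoric acid.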
# Botrytis cinerea = assay: In vivo preventive test on Botrytis cinerea (grey mould); conditions: 500 ppm of active ingredient, preventive spray on young gherkin or cabbage plants, evaluated 4 to 5 days after inoculation, read-out: efficacy
# Procedure: as §1, with “gherkin or cabbage” for “bean”, “Botrytis cinerea” for “Colletotrichum lindemuthianum”
compound,measurement,setting,value
"Cc1ccc(CC2CON=C(c3nc(C4CC4)ncc3Oc3cccc(C(F)(F)F)c3)N2)c(C)c1 (racemic) [Compound I-001, (5RS)-3-{2-cyclopropyl-5-[3-(trifluoro-methyl)phenoxy]pyrimidin-4-yl}-5-(2,4-dimethylbenzyl)-5,6-dihydro-4H-1,2,4-oxadiazine]",pest or weed control at 500 ppm,[1],90 to 100%
same,inhibition at 20 ppm,Septoria tritici,90 to 100%
same,inhibition at 20 ppm,Pyricularia oryzae,80 to 89%
same,inhibition at 20 ppm,Alternaria alternata,90 to 100%
same,pest or weed control at 500 ppm,Sphaerotheca fuliginea,90 to 100%
same,inhibition at 20 ppm,Pyrenophora teres,90 to 100%
same,chromatographic logP,[2],5.16
same,pest or weed control at 500 ppm,Botrytis cinerea,90 to 100%
"Cc1ccc(CC2CON=C(c3nc(C)ncc3Oc3cccc(C(F)(F)F)c3)N2)c(C)c1 (racemic) [Compound I-002, (5RS)-5-(2,4-dimethylbenzyl)-3-{2-methyl-5-[3-(trifluoro-methyl)phenoxy]pyrimidin-4-yl}-5,6-dihydro-4H-1,2,4-oxadiazine]",pest or weed control at 500 ppm,[1],90 to 100%
same,inhibition at 20 ppm,Septoria tritici,90 to 100%
same,inhibition at 20 ppm,Pyricularia oryzae,90 to 100%
same,inhibition at 20 ppm,Alternaria alternata,90 to 100%
same,pest or weed control at 500 ppm,Sphaerotheca fuliginea,90 to 100%
same,inhibition at 20 ppm,Pyrenophora teres,90 to 100%
same,chromatographic logP,[2],4.33
same,pest or weed control at 500 ppm,Botrytis cinerea,90 to 100%
Cc1cccc(Oc2cnc(C)nc2C2=NOC[C@@H](Cc3ccc(C)cc3C)N2)c1 (racemic) [Compound I-004],pest or weed control at 500 ppm,[1],90 to 100%
same,inhibition at 20 ppm,Septoria tritici,90 to 100%
same,inhibition at 20 ppm,Pyricularia oryzae,90 to 100%
same,inhibition at 20 ppm,Alternaria alternata,90 to 100%
same,pest or weed control at 500 ppm,Sphaerotheca fuliginea,90 to 100%
same,inhibition at 20 ppm,Pyrenophora teres,90 to 100%
same,chromatographic logP,[2],3.95
same,pest or weed control at 500 ppm,Botrytis cinerea,90 to 100%
Cc1ccc(C[C@@H]2CON=C(c3nc(C)ncc3Oc3cccc(Cl)c3F)N2)c(Cl)c1 (racemic) [Compound I-005],pest or weed control at 500 ppm,[1],90 to 100%
same,inhibition at 20 ppm,Septoria tritici,90 to 100%
same,inhibition at 20 ppm,Pyricularia oryzae,80 to 89%
same,inhibition at 20 ppm,Alternaria alternata,90 to 100%
same,pest or weed control at 500 ppm,Sphaerotheca fuliginea,90 to 100%
same,inhibition at 20 ppm,Pyrenophora teres,90 to 100%
same,chromatographic logP,[2],4.19
same,pest or weed control at 500 ppm,Botrytis cinerea,90 to 100%
C=Cc1ccc(C[C@@H]2CON=C(c3nc(C)ncc3Oc3cccc(C(F)(F)F)c3)N2)c(C)c1 (racemic) [Compound I-006],pest or weed control at 500 ppm,[1],90 to 100%
same,inhibition at 20 ppm,Septoria tritici,90 to 100%
same,inhibition at 20 ppm,Pyricularia oryzae,70 to 79%
same,inhibition at 20 ppm,Alternaria alternata,90 to 100%
same,pest or weed control at 500 ppm,Sphaerotheca fuliginea,90 to 100%
same,inhibition at 20 ppm,Pyrenophora teres,90 to 100%
same,chromatographic logP,[2],4.44
same,pest or weed control at 500 ppm,Botrytis cinerea,80 to 89%
Cc1ccc(C[C@@H]2CON=C(c3nc(C)ncc3Oc3cccc(C4CC4)c3F)N2)c(Cl)c1 (racemic) [Compound I-008],pest or weed control at 500 ppm,[1],90 to 100%
same,inhibition at 20 ppm,Septoria tritici,90 to 100%
same,inhibition at 20 ppm,Pyricularia oryzae,90 to 100%
same,inhibition at 20 ppm,Alternaria alternata,90 to 100%
same,pest or weed control at 500 ppm,Sphaerotheca fuliginea,90 to 100%
same,inhibition at 20 ppm,Pyrenophora teres,90 to 100%
same,chromatographic logP,[2],4.49
same,pest or weed control at 500 ppm,Botrytis cinerea,90 to 100%
Cc1ccc(C[C@@H]2CON=C(c3nc(C)ncc3Oc3cccc(Br)c3)N2)c(C)c1 (racemic) [Compound I-009],pest or weed control at 500 ppm,[1],90 to 100%
same,inhibition at 20 ppm,Septoria tritici,90 to 100%
same,inhibition at 20 ppm,Pyricularia oryzae,90 to 100%
same,inhibition at 20 ppm,Alternaria alternata,90 to 100%
same,pest or weed control at 500 ppm,Sphaerotheca fuliginea,90 to 100%
same,inhibition at 20 ppm,Pyrenophora teres,90 to 100%
same,chromatographic logP,[2],4.44
same,pest or weed control at 500 ppm,Botrytis cinerea,90 to 100%
Cc1ccc(C[C@@H]2CON=C(c3nc(C)ncc3Oc3cccc(C(F)(F)F)c3)N2)c(Cl)c1 (racemic) [Compound I-013],pest or weed control at 500 ppm,[1],90 to 100%
same,inhibition at 20 ppm,Septoria tritici,90 to 100%
same,inhibition at 20 ppm,Alternaria alternata,90 to 100%
same,pest or weed control at 500 ppm,Sphaerotheca fuliginea,90 to 100%
same,inhibition at 20 ppm,Pyrenophora teres,90 to 100%
same,chromatographic logP,[2],4.47
same,pest or weed control at 500 ppm,Botrytis cinerea,90 to 100%
Cc1ccc(C[C@@H]2CON=C(c3nc(C)ncc3Oc3cccc(C4CC4)c3F)N2)c(C)c1 (racemic) [Compound I-016],pest or weed control at 500 ppm,[1],90 to 100%
same,inhibition at 20 ppm,Septoria tritici,90 to 100%
same,inhibition at 20 ppm,Pyricularia oryzae,90 to 100%
same,inhibition at 20 ppm,Alternaria alternata,90 to 100%
same,pest or weed control at 500 ppm,Sphaerotheca fuliginea,90 to 100%
same,inhibition at 20 ppm,Pyrenophora teres,90 to 100%
same,chromatographic logP,[2],4.41
same,pest or weed control at 500 ppm,Botrytis cinerea,90 to 100%
CSc1ncc(Oc2cccc(C(F)(F)F)c2)c(C2=NOC[C@@H](Cc3ccc(C)cc3C)N2)n1 (racemic) [Compound I-017],pest or weed control at 500 ppm,[1],80 to 89%
same,inhibition at 20 ppm,Septoria tritici,70 to 79%
same,inhibition at 20 ppm,Alternaria alternata,70 to 79%
same,pest or weed control at 500 ppm,Sphaerotheca fuliginea,90 to 100%
same,inhibition at 20 ppm,Pyrenophora teres,90 to 100%
same,chromatographic logP,[2],5.09
same,pest or weed control at 500 ppm,Botrytis cinerea,90 to 100%
Cc1ccc(C[C@@H]2CON=C(c3nc(C)ncc3Oc3cccc(Cl)c3)N2)c(Cl)c1 (racemic) [Compound I-018],pest or weed control at 500 ppm,[1],90 to 100%
same,inhibition at 20 ppm,Septoria tritici,90 to 100%
same,inhibition at 20 ppm,Pyricularia oryzae,90 to 100%
same,inhibition at 20 ppm,Alternaria alternata,90 to 100%
same,pest or weed control at 500 ppm,Sphaerotheca fuliginea,90 to 100%
same,inhibition at 20 ppm,Pyrenophora teres,90 to 100%
same,chromatographic logP,[2],4.22
same,pest or weed control at 500 ppm,Botrytis cinerea,90 to 100%
C=Cc1cccc(Oc2cnc(C)nc2C2=NOC[C@@H](Cc3ccc(C)cc3C)N2)c1 (racemic) [Compound I-019],pest or weed control at 500 ppm,[1],90 to 100%
same,inhibition at 20 ppm,Septoria tritici,90 to 100%
same,inhibition at 20 ppm,Pyricularia oryzae,90 to 100%
same,inhibition at 20 ppm,Alternaria alternata,90 to 100%
same,pest or weed control at 500 ppm,Sphaerotheca fuliginea,80 to 89%
same,inhibition at 20 ppm,Pyrenophora teres,90 to 100%
same,chromatographic logP,[2],4.09
same,pest or weed control at 500 ppm,Botrytis cinerea,90 to 100%
"Cc1ncc(Oc2cccc(C(F)(F)F)c2)c(C2=NOCC(Cc3ccc(Br)cc3C)N2)n1 (racemic) [Compound I-021, (5RS)-5-[(4-bromo-2-methyl-phenyl)methyl]-3-[2-methyl-5-[3-(trifluoro-methyl)phenoxy]pyrimidin-4-yl]-5,6-dihydro-4H-1,2,4-oxadiazine]",pest or weed control at 500 ppm,[1],90 to 100%
same,inhibition at 20 ppm,Septoria tritici,90 to 100%
same,inhibition at 20 ppm,Pyricularia oryzae,90 to 100%
same,inhibition at 20 ppm,Alternaria alternata,90 to 100%
same,pest or weed control at 500 ppm,Sphaerotheca fuliginea,90 to 100%
same,inhibition at 20 ppm,Pyrenophora teres,90 to 100%
same,chromatographic logP,[2],4.48
same,pest or weed control at 500 ppm,Botrytis cinerea,90 to 100%
Cc1ccc(C[C@@H]2CON=C(c3nc(C)ncc3Oc3cccc(Cl)c3)N2)c(C)c1 (racemic) [Compound I-023],pest or weed control at 500 ppm,[1],90 to 100%
same,inhibition at 20 ppm,Septoria tritici,80 to 89%
same,inhibition at 20 ppm,Pyricularia oryzae,90 to 100%
same,inhibition at 20 ppm,Alternaria alternata,90 to 100%
same,pest or weed control at 500 ppm,Sphaerotheca fuliginea,90 to 100%
same,inhibition at 20 ppm,Pyrenophora teres,90 to 100%
same,chromatographic logP,[2],4.15
same,pest or weed control at 500 ppm,Botrytis cinerea,90 to 100%
Cc1ncc(Oc2cccc(C(F)(F)F)c2)c(C2=NOC[C@@H](Cc3ccc(SC(F)(F)F)cc3)N2)n1 (racemic) [Compound I-030],pest or weed control at 500 ppm,[1],70 to 79%
same,inhibition at 20 ppm,Septoria tritici,70 to 79%
same,inhibition at 20 ppm,Alternaria alternata,80 to 89%
same,pest or weed control at 500 ppm,Sphaerotheca fuliginea,90 to 100%
same,inhibition at 20 ppm,Pyrenophora teres,90 to 100%
same,chromatographic logP,[2],4.62
same,pest or weed control at 500 ppm,Botrytis cinerea,90 to 100%
